Where two headings read alike, the source gives them in different places.
How the values were obtained:
Format in all cases: cell-based
[1] = system: 786-0; assay: Human tumor cell line growth assay (SRB); conditions: Renal, 786-0, 48 h
[2] = Human tumor cell line growth assay (SRB); conditions: human, MALME-3M cells (melanoma), read-out: LC50
[3] = system: SK-MEL-28; assay: Human tumor cell line growth assay (SRB); conditions: Homo sapiens; Melanoma, SK-MEL-28, 48 h
[4] = Human tumor cell line growth assay (SRB); conditions: human, SK-MEL-28 cells (melanoma), SK-MEL-28, 48 h, read-out: LC50
[5] = system: HOP-62; assay: Human tumor cell line growth assay (SRB); conditions: Homo sapiens; NSCLC, HOP-62, 48 h
[6] = Human tumor cell line growth assay (SRB); conditions: human, HOP-62 cells (NSCLC), HOP-62, 48 h, read-out: LC50
[7] = system: SW-620; assay: Human tumor cell line growth assay (SRB); conditions: Homo sapiens; Colon, SW-620, 48 h
[8] = Human tumor cell line growth assay (SRB); conditions: human, SW-620 cells (colon), SW-620, 48 h
[9] = system: CCRF-CEM; assay: Human tumor cell line growth assay (SRB); conditions: Leukemia, 48 h
[10] = system: HOP-92; assay: Human tumor cell line growth assay (SRB); conditions: Homo sapiens; NSCLC, HOP-92, 48 h
[11] = Human tumor cell line growth assay (SRB); conditions: human, HOP-92 cells (NSCLC), HOP-92, 48 h
[12] = system: RPMI-8226; assay: Human tumor cell line growth assay (SRB); conditions: Homo sapiens; Leukemia, RPMI-8226, 48 h
[13] = system: SK-OV-3; assay: Human tumor cell line growth assay (SRB); conditions: Ovarian, SK-OV-3, 48 h
[14] = system: SF-268; assay: Human tumor cell line growth assay (SRB); conditions: Homo sapiens; CNS, SF-268, 48 h
[15] = Human tumor cell line growth assay (SRB); conditions: human, SF-268 cells (CNS), SF-268, 48 h
[16] = system: NCI/ADR-RES; assay: Human tumor cell line growth assay (SRB); conditions: Ovarian, 48 h
[17] = system: HS 578T; assay: Human tumor cell line growth assay (SRB); conditions: Breast, 48 h
[18] = system: HCC-2998; assay: Human tumor cell line growth assay (SRB); conditions: Homo sapiens; Colon, HCC-2998, 48 h
[19] = system: NCI-H522; assay: Human tumor cell line growth assay (SRB); conditions: Homo sapiens; NSCLC, NCI-H522, 48 h
[20] = Human tumor cell line growth assay (SRB); conditions: human, NCI-H522 cells (NSCLC), NCI-H522, 48 h
[21] = system: A498; assay: Human tumor cell line growth assay (SRB); conditions: Renal, A498, 48 h
[22] = system: TK-10; assay: Human tumor cell line growth assay (SRB); conditions: Renal, TK-10, 48 h
[23] = system: NCI-H23; assay: Human tumor cell line growth assay (SRB); conditions: Homo sapiens; NSCLC, NCI-H23, 48 h
[24] = Human tumor cell line growth assay (SRB); conditions: human, NCI-H23 cells (NSCLC), NCI-H23, 48 h, read-out: LC50
[25] = system: K-562; assay: Human tumor cell line growth assay (SRB); conditions: K562, Leukemia, K-562, 48 h
[26] = system: DU-145; assay: Human tumor cell line growth assay (SRB); conditions: Prostate, DU-145, 48 h
[27] = system: OVCAR-5; assay: Human tumor cell line growth assay (SRB); conditions: Homo sapiens; Ovarian, OVCAR-5, 48 h
[28] = Human tumor cell line growth assay (SRB); conditions: human, OVCAR-5 cells (ovarian), OVCAR-5, 48 h, read-out: LC50
[29] = system: IGR-OV1; assay: Human tumor cell line growth assay (SRB); conditions: Homo sapiens, IGROV-1; Ovarian, IGR-OV1, 48 h
[30] = Human tumor cell line growth assay (SRB); conditions: human, IGR-OV1 cells (ovarian), IGR-OV1, 48 h, read-out: LC50
[31] = system: UACC-257; assay: Human tumor cell line growth assay (SRB); conditions: Homo sapiens; Melanoma, UACC-257, 48 h
[32] = Human tumor cell line growth assay (SRB); conditions: human, UACC-257 cells (melanoma), UACC-257, 48 h, read-out: LC50
[33] = Human tumor cell line growth assay (SRB); conditions: human, U251 cells (CNS), U251, 48 h, read-out: LC50
[34] = system: U251; assay: Human tumor cell line growth assay (SRB); conditions: Homo sapiens, U-251; CNS, U251, 48 h
[35] = system: A549/ATCC; assay: Human tumor cell line growth assay (SRB); conditions: Homo sapiens, NSCLC, 48 h
[36] = Human tumor cell line growth assay (SRB); conditions: human, A549/ATCC cells (NSCLC), read-out: LC50
[37] = system: HL-60(TB); assay: Human tumor cell line growth assay (SRB); conditions: Leukemia, 48 h
[38] = read-out: LC50 (the source's name)

Cc1cc2nc3c4cc([N+](=O)[O-])ccc4n(CCN(C)C)c3nc2cc1C [JBA-185, 2-(2,3-dimethyl-9-nitro-6H-indolo[2,3-b]quinoxalin-6-yl)-N,N-dimethylethanamine]
GI50 [1]: 757 nM
LC50 [1]: 9560 nM
CC50 at 48 h [2]: 5100 nM
GI50 [3]: 807 nM
CC50 at 48 h [4]: 5650 nM
GI50 [5]: 507 nM
CC50 at 48 h [6]: > 100000 nM
GI50 [7]: 302 nM
LC50 (50% lethal concentration) at 48 h [8]: > 100000 nM
GI50 [9]: 642 nM
CC50 [9, 38]: > 100000 nM
GI50 [10]: 642 nM
LC50 at 48 h [11]: > 100000 nM
GI50 [12]: 389 nM
GI50 [13]: 704 nM
CC50 [13, 38]: > 100000 nM
GI50 [14]: 793 nM
LC50 (50% lethal concentration) at 48 h [15]: > 100000 nM
GI50 [16]: 415 nM
CC50 [16, 38]: > 100000 nM
GI50 [17]: 1570 nM
CC50 [17, 38]: > 100000 nM
GI50 [18]: 756 nM
GI50 [19]: 595 nM
LC50 at 48 h [20]: > 100000 nM
GI50 [21]: 1260 nM
CC50 [21, 38]: 5500 nM
GI50 [22]: 371 nM
CC50 [22, 38]: > 100000 nM
GI50 [23]: 492 nM
CC50 at 48 h [24]: 22600 nM
GI50 [25]: 360 nM
CC50 [25, 38]: > 100000 nM
GI50 [26]: 540 nM
CC50 [26, 38]: > 100000 nM
GI50 [27]: 587 nM
CC50 at 48 h [28]: > 100000 nM
GI50 [29]: 357 nM
CC50 at 48 h [30]: > 100000 nM
GI50 [31]: 732 nM
CC50 at 48 h [32]: 34400 nM
CC50 at 48 h [33]: > 100000 nM
GI50 [34]: 470 nM
GI50 [35]: 387 nM
CC50 at 48 h [36]: 94400 nM
GI50 [37]: 914 nM
CC50 [37, 38]: > 100000 nM

Source: patent US20230312578A1, “6H-INDOLO[2,3-B]QUINOXALINE DERIVATIVES USEFUL IN THERAPY” (Vironova Medical AB, priority 2020, published 2023)
